Assay [1] deals with T1, Cytochrome P450 11B2, mitochondrial (Homo sapiens, UniProt P19099).
T1 sequence (P19099 whole entry): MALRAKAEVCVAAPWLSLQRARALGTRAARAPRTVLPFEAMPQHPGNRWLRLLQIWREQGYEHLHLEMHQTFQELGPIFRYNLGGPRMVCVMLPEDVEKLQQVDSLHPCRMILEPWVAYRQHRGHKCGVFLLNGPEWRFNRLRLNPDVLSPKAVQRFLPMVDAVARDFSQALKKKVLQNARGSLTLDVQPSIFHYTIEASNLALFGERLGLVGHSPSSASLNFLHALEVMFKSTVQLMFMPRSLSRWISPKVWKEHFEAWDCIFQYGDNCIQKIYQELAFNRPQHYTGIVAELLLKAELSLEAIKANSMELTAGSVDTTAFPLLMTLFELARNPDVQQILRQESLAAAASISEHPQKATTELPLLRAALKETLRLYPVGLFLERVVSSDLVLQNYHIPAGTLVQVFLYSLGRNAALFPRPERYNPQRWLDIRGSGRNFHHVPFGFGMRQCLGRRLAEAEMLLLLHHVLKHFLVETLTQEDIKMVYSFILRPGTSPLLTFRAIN
Description: Inhibition of human CYP11B2 expressed in hamster V79MZh cells using [1,2-3H]-11-deoxycorticosterone as substrate

For assay [2], the target named is T2, Cytochrome P450 11B1, mitochondrial (Homo sapiens, UniProt P15538).
T2 sequence (P15538 whole entry): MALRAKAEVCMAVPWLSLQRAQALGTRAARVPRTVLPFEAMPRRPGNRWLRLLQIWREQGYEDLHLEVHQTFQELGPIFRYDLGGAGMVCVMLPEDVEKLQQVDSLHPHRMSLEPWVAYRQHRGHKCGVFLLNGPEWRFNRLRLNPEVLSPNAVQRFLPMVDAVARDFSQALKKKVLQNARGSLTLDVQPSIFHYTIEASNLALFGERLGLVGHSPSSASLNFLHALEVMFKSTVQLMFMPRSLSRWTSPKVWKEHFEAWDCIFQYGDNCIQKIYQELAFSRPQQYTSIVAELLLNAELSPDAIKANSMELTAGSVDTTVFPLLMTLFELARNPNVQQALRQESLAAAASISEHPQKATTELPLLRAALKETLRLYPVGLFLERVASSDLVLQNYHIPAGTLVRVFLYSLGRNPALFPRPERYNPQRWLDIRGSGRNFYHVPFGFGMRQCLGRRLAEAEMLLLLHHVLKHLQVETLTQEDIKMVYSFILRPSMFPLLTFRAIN
Description: Inhibition of human CYP11B1 expressed in hamster V79MZh cells using [1,2-3H]-11-deoxycorticosterone as substrate

Assay [3] has as its target T3, Steroid 17-alpha-hydroxylase/17,20 lyase (Homo sapiens, UniProt P05093).
T3 sequence (P05093 whole entry): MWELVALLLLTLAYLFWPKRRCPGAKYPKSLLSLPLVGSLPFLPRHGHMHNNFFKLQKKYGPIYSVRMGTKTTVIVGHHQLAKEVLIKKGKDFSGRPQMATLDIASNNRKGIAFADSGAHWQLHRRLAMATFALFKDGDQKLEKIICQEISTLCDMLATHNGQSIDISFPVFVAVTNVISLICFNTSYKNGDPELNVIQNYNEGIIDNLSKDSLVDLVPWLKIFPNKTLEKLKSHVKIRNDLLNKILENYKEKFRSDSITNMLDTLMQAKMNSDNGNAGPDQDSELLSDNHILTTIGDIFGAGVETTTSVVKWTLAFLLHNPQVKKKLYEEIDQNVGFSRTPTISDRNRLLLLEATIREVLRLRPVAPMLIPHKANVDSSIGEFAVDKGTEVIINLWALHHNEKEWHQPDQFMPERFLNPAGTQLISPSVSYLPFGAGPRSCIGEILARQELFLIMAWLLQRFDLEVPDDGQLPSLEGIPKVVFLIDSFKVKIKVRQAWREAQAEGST
Description: Inhibition of human CYP17 expressed in Escherichia coli co-expressing rat NADPH-P450-reductase using progesterone as substrate

A further assay addresses T4, Aromatase (Homo sapiens, UniProt P11511).
T4 sequence (P11511 whole entry): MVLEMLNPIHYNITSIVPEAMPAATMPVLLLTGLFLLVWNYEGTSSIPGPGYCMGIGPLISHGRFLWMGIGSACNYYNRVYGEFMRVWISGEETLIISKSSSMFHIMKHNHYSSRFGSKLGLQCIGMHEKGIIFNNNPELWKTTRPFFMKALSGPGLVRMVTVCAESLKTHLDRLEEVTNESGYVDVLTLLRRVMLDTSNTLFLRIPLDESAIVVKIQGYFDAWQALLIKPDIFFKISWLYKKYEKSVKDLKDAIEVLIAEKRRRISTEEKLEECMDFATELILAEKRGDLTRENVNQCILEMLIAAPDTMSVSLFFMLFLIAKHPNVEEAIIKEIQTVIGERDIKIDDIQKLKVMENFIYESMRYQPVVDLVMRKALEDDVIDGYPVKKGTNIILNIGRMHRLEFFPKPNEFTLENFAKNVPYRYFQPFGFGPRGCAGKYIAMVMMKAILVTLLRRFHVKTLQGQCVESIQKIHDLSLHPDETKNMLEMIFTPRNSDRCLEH

By IC50 is commonly meant the concentration at which inhibition is half-maximal.

Description for Aromatase: Inhibition of human placental CYP19 using [1beta-3H]androstenedione as substrate by 3H2O-method

`CCC(C)Oc1ccc(Cn2ccnc2)c2c(=O)c3ccccc3oc12` (configuration not stated): the IC50 in assay [1] is 15.3 nM; in assay [2], 13.1 nM; in assay [3], above 5000 nM; at Aromatase, 575 nM.

On to `O=c1c2ccccc2oc2c(OCC3CC3)ccc(Cn3ccnc3)c12`, for which the IC50 in assay [1] was 24.1 nM; in assay [2], 5.5 nM; in assay [3], above 5000 nM; against Aromatase, 565 nM.

For `O=c1c2ccccc2oc2c(O)ccc(Cn3ccnc3)c12`, the concentration for half-maximal inhibition (IC50) in assay [1] was 235 nM; in assay [2], 416 nM; in assay [3], 493 nM; against Aromatase, 170 nM.

Take `CC(C)CCOc1ccc(Cn2ccnc2)c2c(=O)c3ccccc3oc12`: the IC50 in assay [1] is 25.2 nM; in assay [2] it was 24.4 nM; in assay [3], above 5000 nM; on Aromatase it was 837 nM.

As for `Nc1ccc(Cn2ccnc2)c2c(=O)c3ccccc3oc12`, the IC50 is 676 nM in assay [1], 785 nM in assay [2], 1740 nM in assay [3] and 6390 nM at Aromatase.

On to `O=c1c2ccccc2oc2c([N+](=O)[O-])ccc(Cn3ccnc3)c12`, for which the IC50 was 31.1 nM in assay [1] and 22.3 nM in assay [2].

Turning to `O=c1c2ccccc2oc2c(Br)ccc(Cn3ccnc3)c12`, the figures for the IC50 in assay [1] and in assay [2] were 8.5 nM and 6.7 nM, respectively.

Regarding `CC(C)Oc1ccc(Cn2ccnc2)c2c(=O)c3ccccc3oc12`, the IC50 in assay [1] is 19.1 nM; in assay [2], 92.5 nM; in assay [3], 1250 nM; against Aromatase, 400 nM.

With `O=c1c2ccccc2oc2c(I)ccc(Cn3ccnc3)c12`, the IC50 in assay [1] was 23.5 nM; in assay [2], 19.2 nM; in assay [3], 1350 nM; on Aromatase, 460 nM.

For `CCOc1ccc(Cn2ccnc2)c2c(=O)c3ccccc3oc12`, the IC50 was 14.8 nM in assay [1], 25.4 nM in assay [2], above 5000 nM in assay [3] and 1970 nM against Aromatase.

At Aromatase, `C[C@]12CC[C@H](O)CC1=CC[C@@H]1[C@@H]2CC[C@]2(C)C(c3cccnc3)=CC[C@@H]12` [ABIRATERONE] gave an IC50 above 5000 nM.

With `COc1ccc(Cn2ccnc2)c2c(=O)c3ccccc3oc12`, the IC50 is 41.1 nM in assay [1], 80.1 nM in assay [2], 610 nM in assay [3] and 1100 nM at Aromatase.

In the case of `O=c1c2ccccc2oc2c(-c3ccccc3)ccc(Cn3ccnc3)c12`, the IC50 came to 104 nM in assay [1], 156 nM in assay [2], 1890 nM in assay [3] and 300 nM against Aromatase.

On to `O=c1c2ccccc2oc2c(Cl)ccc(Cn3ccnc3)c12`, for which the IC50 is 3 nM in assay [1], 0.5 nM in assay [2], 260 nM in assay [3] and 480 nM against Aromatase.

For `N#Cc1ccc(Cn2ccnc2)c2c(=O)c3ccccc3oc12`, the IC50 is 19.5 nM in assay [1] and 13.4 nM in assay [2].

Regarding `O=c1c2ccccc2oc2cccc(Cn3ccnc3)c12`, the IC50 in assay [1] amounted to 114 nM; in assay [2], 99.1 nM.

In the case of `O=c1c2ccccc2oc2c(OC3CCCC3)ccc(Cn3ccnc3)c12`, the IC50 in assay [1] was 99.7 nM; in assay [2], 268 nM; in assay [3], above 5000 nM; at Aromatase it was 260 nM.

These data come from ChEMBL document CHEMBL2331307, “Modulation of cytochromes P450 with xanthone-based molecules: from aromatase to aldosterone synthase and steroid 11β-hydroxylase inhibition” (J Med Chem, 2013).
